Laboratory results: patent US12338199B2, “Bis-octahydrophenanthrene carboxamides and protein conjugates thereof” (REGENERON PHARMACEUTICALS, INC., priority 2017, dated 2025)
≈ marks a conversion by molar mass, not a printed value. Where two headings read alike, the source gives them in different places.

Experiments:
LXR alpha = biological target: T1, LXR alpha (Homo sapiens, UniProt Q13133); test: LanthaScreen TR-FRET LXR alpha Coactivator Assay (cell-free binding)
T1 construct: LXR alpha or beta LBD-GST; purchased ThermoFisher PV4655
T1 sequence (Q13133 209-447 limits assumed): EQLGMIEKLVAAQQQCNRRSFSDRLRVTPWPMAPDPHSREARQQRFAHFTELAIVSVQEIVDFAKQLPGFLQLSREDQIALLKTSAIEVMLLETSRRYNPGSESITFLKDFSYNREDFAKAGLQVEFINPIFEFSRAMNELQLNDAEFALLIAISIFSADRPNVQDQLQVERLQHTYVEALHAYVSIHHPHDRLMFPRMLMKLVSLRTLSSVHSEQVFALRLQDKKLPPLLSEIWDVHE
Protocol: (§1) To evaluate the ability of novel LXR agonists to bind to the LXR alpha and beta receptor, a cell-free binding assay was performed using a LanthaScreen TR-FRET LXR alpha Coactivator Assay Kit (ThermoFisher, Cat # PV4655) and LXR beta Coactivator Assay Kit (ThermoFisher, Cat # PV4658). The assay was performed according to the manufacturer's instructions. Briefly, a 3-fold serial dilution of LXR agonists were prepared in 100% DMSO starting at 100 μM (100× of final). Serial dilutions were further diluted 50-fold in nuclear receptor buffer F with 5 mM DTT, and transferred to a 384-well assay plate. Next, Fluorescein-D22, LXR alpha or beta LBD-GST, and Tb anti-GST antibody was sequentially added to 384-well assay plate. The plate was then incubated at rt for 2.5 hours while being protected from light. […] The IC50 values were determined using a four-parameter logistic equation over a 12-point response curve (GraphPad Prism).

ABCA1 = ABCA1 mRNA induction in differentiated THP-1 macrophages (TaqMan); format: cell-based, human; details: THP1 macrophages, 24-hour treatment; magnitude in words
Protocol: (§2) To determine the ability of LXR agonists to activate ABCA1 and ABCG1 genes, the mRNA levels of these two genes in differentiated macrophages was measured. […] Cells were differentiated into macrophages by treatment with 100 nM Phorbol-12 myristate 13-acetate (Sigma, # P8139), which was added to the media described above, for 72 hours. […] Chloroform was then used for phase separation. The aqueous phase, containing total RNA, was purified using MagMAX™-96 for Microarrays Total RNA Isolation Kit (Ambion, Cat # AM1830) and reverse-transcribed into cDNA using SuperScript® VILO™ Master Mix (Invitrogen, Cat #11755050) as per the manufacturer's instructions. TaqMan® was performed using Gene Expression Master Mix, the ABI 7900HT Sequence Detection System (Applied Biosystems) and the primers and probes indicated below in Table 9. The GAPDH gene was used as the internal control gene to normalize any cDNA input differences.

ABCG1 = ABCG1 mRNA induction in differentiated THP-1 macrophages (TaqMan); format: cell-based, human; details: THP1 macrophages, 24-hour treatment; magnitude in words
Protocol: as §2

THP1/LXR-Luc cells = test: THP1/LXR-Luc luciferase reporter bioassay; format: cell-based; details: Homo sapiens, THP-1, 48 hours; for EC50: read-out: Activation of THP1/LXR-Luc cells: EC50; for Emax: relative to maximum activation of free payload 9d, read-out: Activation of THP1/LXR-Luc cells: Fold of activation
Source text: The fold activation in the cell-based assays (as described in Example 68, below) was defined based on the maximum activation of the free payload 9d.
(§3) A bioassay was developed to assess the activity of LXR agonists after internalization of an agonist or of a ncADC into cells and binding to LXR, a nuclear receptor, using a commercially available LXR reporter (referred to as LXR-Luc) that contains the firefly luciferase gene under control by minimal CMV promoter and tandem repeats of the LXR transcriptional response element. For this assay, a THP1 cell line, which is a human monocytic leukaemia line, was engineered to express full length human Her2 (expressing amino acids M1 through V1255 of accession number NP_004439.2). The subsequent stable cell line was further transduced with a Cignal LXR Luc Reporter (Qiagen, Cat # CLS-7041L). The resulting stable cell line is referred to herein as THP1/Her2/LXR-Luc. The Her2 cell surface expression on THP1/Her2/LXR-Luc cell line was confirmed by FACS (data not shown).
Additionally, a THP1 cell line was transduced with a Cignal LXR Luc Reporter (Qiagen, Cat # CLS-7041L) without the addition of Her2. The resulting stable cell line is referred to herein as THP1/LXR-Luc. All of the antibodies used in the subsequent bioassays were assessed for their ability to internalize and release a payload on the bioassay cell line used.
(§4) This example assessed the ability of the LXR agonists provided herein, reference compounds, and anti-Her2 antibody-LXR ncADC to activate LXR. The samples were tested in the THP1/LXR-Luc/Her2 bioassay. For the assay, either THP1/LXR-Luc cells or THP1/LXR-Luc/Her2 cells were seeded onto white 96 well plates at 30,000 cells/well in media containing RPMI supplemented with 10% FBS and pencillin/streptomycin (complete media). Subsequently 3-fold serial dilutions of antibody drug conjugates, unconjugated antibodies, or free payloads were added to the cells at final concentration ranging from 100 nM to 0.01 nM. After 48-hour or 72-hour incubation, luciferase activity was determined after the addition of One-Glo™ reagent (Promega, Cat # E6130) to each well of cells. Relative light units (RLUs) were measured on a Victor luminometer (PerkinElmer) and the EC5o values were determined using a four-parameter logistic equation over a 10-point dose response curve (GraphPad Prism) (FIG. 15). The fold activation is calculated based on the maximum activation of the free payload 9d.

LXR beta = biological target: T2, LXR beta (Homo sapiens, UniProt P55055); test: LanthaScreen TR-FRET LXR beta Coactivator Assay (cell-free binding)
T2 construct: LXR alpha or beta LBD-GST; purchased ThermoFisher PV4658
T2 sequence (P55055 222-460 limits assumed): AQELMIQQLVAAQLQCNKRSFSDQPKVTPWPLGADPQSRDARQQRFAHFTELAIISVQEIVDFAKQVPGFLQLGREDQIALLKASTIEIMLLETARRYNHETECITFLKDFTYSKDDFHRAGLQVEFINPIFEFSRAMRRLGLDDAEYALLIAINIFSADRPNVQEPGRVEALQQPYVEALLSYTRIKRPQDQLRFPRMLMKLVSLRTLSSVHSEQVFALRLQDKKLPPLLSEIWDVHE
Protocol: as §1

THP1/LXR-Luc/Her2 cells = test: THP1/LXR-Luc/Her2 luciferase reporter bioassay; format: cell-based; details: Homo sapiens
Source text: as §3, §4

[1] = Water solubility and pH stability of phosphate analogs; format: physicochemical; details: for Stability: pH as given in the value, 17c converted to 17b in the presence of methanol
Source text: The phosphoric acid-analog 17a was obtained from the treatment of phenol 9g with diphosphoryl chloride 18. Compounds 17b and 17c were obtained from the acidic deprotection of 17a with TFA.

LXRα = biological target: T3, LXRα (Homo sapiens, UniProt Q13133); details: reported in Bioconjug Chem. 2015 26(11), 2216-22; cited from earlier work
T3 sequence (Q13133 1-447): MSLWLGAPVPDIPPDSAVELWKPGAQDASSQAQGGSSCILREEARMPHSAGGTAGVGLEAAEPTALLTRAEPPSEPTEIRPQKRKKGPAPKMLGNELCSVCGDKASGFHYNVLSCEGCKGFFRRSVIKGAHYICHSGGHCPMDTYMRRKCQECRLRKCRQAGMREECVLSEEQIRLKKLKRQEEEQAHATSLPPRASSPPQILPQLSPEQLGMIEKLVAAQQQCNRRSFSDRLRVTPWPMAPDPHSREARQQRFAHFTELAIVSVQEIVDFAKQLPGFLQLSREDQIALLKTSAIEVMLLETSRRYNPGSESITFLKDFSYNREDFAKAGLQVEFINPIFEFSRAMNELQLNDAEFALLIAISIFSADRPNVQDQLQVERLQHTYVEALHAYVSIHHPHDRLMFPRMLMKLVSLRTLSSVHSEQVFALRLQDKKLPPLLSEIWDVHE

LXRβ = biological target: T4, LXRβ (Homo sapiens, UniProt P55055); details: reported in Bioconjug Chem. 2015 26(11), 2216-22; cited from earlier work
T4 sequence (P55055 1-460): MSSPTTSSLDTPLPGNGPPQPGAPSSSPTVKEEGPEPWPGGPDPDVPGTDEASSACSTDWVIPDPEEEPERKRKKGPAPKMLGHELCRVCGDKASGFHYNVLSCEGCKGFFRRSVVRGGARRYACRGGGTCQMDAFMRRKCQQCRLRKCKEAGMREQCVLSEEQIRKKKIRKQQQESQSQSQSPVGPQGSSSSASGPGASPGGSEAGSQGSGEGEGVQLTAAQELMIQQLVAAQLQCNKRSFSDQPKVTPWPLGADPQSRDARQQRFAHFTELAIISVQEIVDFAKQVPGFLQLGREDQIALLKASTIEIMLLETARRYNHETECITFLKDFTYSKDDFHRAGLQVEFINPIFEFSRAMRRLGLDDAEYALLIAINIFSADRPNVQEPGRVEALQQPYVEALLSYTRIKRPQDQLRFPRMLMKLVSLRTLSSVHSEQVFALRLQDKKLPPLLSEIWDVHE

Solubility in water = format: physicochemical; details: H2O
Protocol: To a solution of compound LP2-6 (4.3 mg, 7.8 μmol) in anhydrous DMF (1 mL) was added HATU (3.0 mg, 7.8 μmol). The mixture was stirred at 10° C. for 10 minutes before compound LP2-5 (15 mg, 6.5 μmol) and DIPEA (1.7 mg, 13 μmol) was added. The mixture was stirred at RT for 2 hours until LP2-5 was totally consumed, as monitored by LCMS. […]

[2] = TR-FRET, 12-point curve, read-out: Cell free binding LXRα IC50
[3] = TR-FRET, 12-point curve, read-out: Cell free binding LXRβ IC50

Row | Compound | IC50 (LXR alpha; [2]) [nM] | EC50 (THP1/LXR-Luc cells) [nM] | Emax (THP1/LXR-Luc cells) [%] | IC50 (LXR beta; [3]) [nM] | IC50 (LXR alpha) [nM] | Stability [1] | IC50 (LXR beta) [nM] | further results
1 | C[C@]1(C(=O)NC(=O)[C@@]2(C)CCC[C@]3(C)c4cc(NC(=O)CN)ccc4CC[C@@H]23)CCC[C@]2(C)c3cc(O)ccc3CC[C@@H]12 [Compound 9h, (1S,4aS,10aR)-6-(2-Aminoacetamido)-N-((1S,4aS,10aR)-6-hydroxy-1,4a-dimethyl-1,2,3,4,4a,9,10,10a-octahydrophenanthrene-1-carbonyl)-1,4a-dimethyl-1,2,3,4,4a,9,10,10a-octahydrophenanthrene-1-carboxamide] | < 1 | ≤ 1 | > 75 | < 1 |  |  |  | ABCA1 induction EC50 (ABCA1): sub-picomolar; ABCG1 induction EC50 (ABCG1): sub-picomolar; EC50 (THP1/LXR-Luc/Her2 cells; THP-1, 48 h, 48-hour time point): 0.5 nM; EC50 (THP1/LXR-Luc/Her2 cells; THP-1, 48 h, 48 hours, unit inferred, values correspond to M): 0.5 nM; EC50 (THP1/LXR-Luc/Her2 cells; THP-1, 72 h, 72-hour time point): 0.65 nM; EC50 (THP1/LXR-Luc/Her2 cells; THP-1, 72 h, 72 hours): 0.65 nM
2 | COP(=O)(O)Oc1ccc2c(c1)[C@@]1(C)CCC[C@](C)(C(=O)NC(=O)[C@@]3(C)CCC[C@]4(C)c5cc(N)ccc5CC[C@@H]34)[C@@H]1CC2 [Compound 17b, (4bS,8S,8aR)-8-((1S,4aS,10aR)-6-Amino-1,4a-dimethyl-1,2,3,4,4a,9,10,10a-octahydrophenanthrene-1-carbonylcarbamoyl)-4b,8-dimethyl-4b,5,6,7,8,8a,9,10-octahydrophenanthren-3-yl methyl hydrogen phosphate] |  | 10 to 100 | > 75 |  | 10 to 100 | stable at pH 5-8 | < 10 | 
3 | C[C@]1(C(=O)NC(=O)[C@@]2(C)CCC[C@]3(C)c4cc(OP(=O)(O)O)ccc4CC[C@@H]23)CCC[C@]2(C)c3cc(N)ccc3CC[C@@H]12 [Compound 17c, (4bS,8S,8aR)-8-((1S,4aS,10aR)-6-Amino-1,4a-dimethyl-1,2,3,4,4a,9,10,10a-octahydrophenanthrene-1-carbonylcarbamoyl)-4b,8-dimethyl-4b,5,6,7,8,8a,9,10-octahydrophenanthren-3-yl dihydrogen phosphate] |  | ≤ 1 | > 75 |  | > 100 | not stable at pH 5 | < 10 | Solubility in water ([1]; under basic and neutral conditions): soluble in water
4 | CCc1cnc2c(C(F)(F)F)cccc2c1-c1cccc(Oc2cccc(S(=O)(=O)N(C)CCN)c2)c1 [Compound 31, N-(2-Aminoethyl)-3-(3-(3-ethyl-8-(trifluoromethyl)quinolin-4-yl)phenoxy)-N-methylbenzenesulfonamide, reference compound] | < 10 | 10 to 100 | 25 to 75 | < 10 |  |  |  | binding affinity to LXRα (LXRα): 1.5 nM; binding affinity to LXRβ (LXRβ): 12 nM
5 | CC(C)[C@H](NC(=O)[C@@H](CCCCNC(=O)COC1CCCCCc2c1nnn2CC1OC2OC3C(CO)OC(OC4C(CO)OC(OC5C(CO)OC(OC6C(CO)OC(OC7C(CO)OC(OC8C(CO)OC(OC9C(CO)OC(OC1C(O)C2O)C(O)C9O)C(O)C8O)C(O)C7O)C(O)C6O)C(O)C5O)C(O)C4O)C(O)C3O)NC(=O)CCOCCOCCOCCOCCNC(=O)CCC(=O)N1Cc2ccccc2C#Cc2ccccc21)C(=O)N[C@@H](C)C(=O)Nc1ccc2c(c1)[C@@]1(C)CCC[C@](C)(C(=O)NC(=O)[C@@]3(C)CCC[C@]4(C)c5cc(O)ccc5CC[C@@H]34)[C@@H]1CC2 (stereo partly shown) [LP32] |  |  |  |  |  |  |  | solubility (Solubility in water): 75 µg/mL (≈ 26.3 µM)
